System: NK cells
Experiment: Sorted NK cell populations (CD57/NKG2C) cultured with CHIR99021: maturation
Assay type: cell-based, human
Conditions: 7 day
Procedure: NK Cell Sorting: CD3/CD19 depleted PBMC were labelled with 10 uM e450 proliferation dye (eBioscience) and stained with FITC-conjugated anti-CD57, PE-Conjugated anti-NKG2C, APC-conjugated anti-CD56, and Percp-Cy5.5-conjugated anti-CD3 antibodies (BD Biosciences and R&D Systems). Four populations of CD3-CD56+NK cells were sorted according to the expression of CD57 and NKG2C; CD57+NKG2C−, CD57+NKG2C+, CD57-NKG2C+, and CD57-NKG2C−. Sorted NK cell populations were cultured at a 2:1 ratio of NK:monocytes in BO media with 10 ng/ml IL-15 and CHIR99021 or vehicle control. Stained but unsorted cells were cultured in parallel as a control.
CD3/CD19 depleted PBMC were labelled with e450 proliferation dye, and CD56+CD3− NK cells were sorted in bulk or were sorted into 4 populations based on expression of CD57 and NKG2C expression (FIG. 5A). Total, unfractionated, NK cells were cultured alongside CD57+NKG2C− (Q1), CD57+NKG2C+(Q2), CD57−NKG2C+(Q3), CD57−NKG2C− (Q4) sorted NK cells with either (1) cytokine (10 ng/ml IL15) and 5 μM CHIR99021, or (2) cytokine only with vehicle control (for example, DMSO only) (FIG. 5B) with autologous CD14+ monocytes in a 1:1 ratio of NK cells:monocytes. After the 7 day culture period, cultures of each sorted population were stained for flow cytometry and analyzed for proliferation and cell surface marker expression. […]

Structure (SMILES): Cc1c[nH]c(-c2cnc(NCCNc3ccc(C#N)cn3)nc2-c2ccc(Cl)cc2Cl)n1 [CHIR99021]
- expression of CD57 in Q3 and Q4 sorted cells (CD57− before culturing) (10 ng/ml IL15 + 5 μM CHIR99021): upregulated
- CD57 expression in the total NK cells (10 ng/ml IL15 + 5 μM CHIR99021, unsorted): significant increase
